Reference: patent US10166225B2, “Method for treating osteoporosis” (Exelixis, Inc., priority 2011, dated 2019)

Assays:
human osteoclasts = test: Osteoclast activity assay (resorption index CTX/TRACP 5b); assay type: cell-based; conditions: reference inhibitor, 1_M
Method: In the second part, the culture medium of human osteoclasts was replaced by new medium at day 7, and the formed mature osteoclasts were cultured for an additional 3 days, allowing them to resorb bone. Compound 1 was added into the culture medium at day 7. […] C-terminal cross-linked telopeptides of type I collagen (CTX) were measured in the culture medium collected at day 10 to quantitate bone resorption during days 7-10. […] was measured at day 7 to quantitate osteoclast number before Compound 1 was added. The CTX values were divided by the […] values, resulting as a resorption index that indicates mean osteoclast activity. […] The objective of this study was to investigate the effects of Compound 1 selected by the Sponsor on differentiation and activity of human osteoclasts and mouse osteoblasts in vitro. The effects on osteoclasts were studied using a model where bone marrow-derived human osteoclast precursor cells are cultured on bovine bone slices for 7 days in conditions favouring osteoclast differentiation, and allowed to differentiate into bone-resorbing osteoclasts. After completion of osteoclast differentiation at day 7, the culture medium was removed and new culture medium favouring osteoclast activity was added into the wells. The mature osteoclasts were then cultured for an additional 3 days, allowing them to resorb bone. In the osteoclast differentiation assay, the test compounds and a reference inhibitor osteoprotegerin (OPG) were added into cultures at day 0. In the osteoclast activity assay, the test compounds and a reference inhibitor E64 were added into cultures at day 7. Seven concentrations in 8 replicates were tested in both assays. Tartrate-resistant acid phosphatase 5b activity ([…]) was measured from the culture medium collected at day 7 as an index of the number of osteoclasts formed in each well during the differentiation period. C-terminal cross-linked telopeptides of type I collagen (CTX) was measured from the culture medium collected at day 10 to quantitate bone resorption during days 7-10. A human osteoclast culture system was developed for use in this study where CD34+ osteoclast precursor cells derived from human bone marrow (Poietics® Human Osteoclast Precursors, Lonza, Walkersville, USA) are cultured on bovine bone slices in the presence of appropriate growth factors, including M-CSF and RANK-ligand ([…] et al. 2009). The cells are first allowed to differentiate into mature bone-resorbing osteoclasts, and the formed osteoclasts are then allowed to resorb bone. The test and reference compounds are added into the cell cultures at the beginning of the differentiation and/or the resorption period, and their effects on the differentiation and/or resorbing activity of osteoclasts are determined. Secreted […] is determined from the culture medium after the differentiation period using a commercially available method (BoneTRAPÒ, IDS Ltd, Boldon, UK). Secreted […] describes accurately the number of osteoclasts formed in each well during the differentiation period. CTX is determined from the culture medium after the resorption period using a commercially available method (CrossLapsÒ for cultures, IDS Ltd, Boldon, UK). CTX describes accurately the amount of bone collagen degradation products released into the culture medium in each well during the resorption period. […] In this study, human bone marrow-derived CD34+ stem cells (10000 cells/well) were suspended in culture medium and allowed to attach to bovine bone slices in 96-well tissue culture plates. The culture medium (containing 10% FBS, OCP BulletKit® Lonza, Walkersville, USA) was supplemented with appropriate amounts of important growth factors favoring osteoclast differentiation and activity, including M-CSF (33 ng/ml, OCP BulletKit® Lonza, Walkersville, USA) and RANK-ligand (66 ng/ml, OCP BulletKit® Lonza, Walkersville, USA) in 200 μl of medium. The cells were incubated in a CO2 incubator in humidified atmosphere of 95% air and 5% carbon dioxide at 37° C. […]

[1] = women, subcutaneous denosumab 60 mg every 6 months; one month after injection; cited from earlier work
[2] = postmenopausal women, one subcutaneous injection, dose-dependent, for as long as 6 months; cited from earlier work

Molecule	effect on osteoclast activity (human osteoclasts)	serum CTx levels [1]	suppression of urinary NTx [2]
CC(C)C[C@H](NC(=O)[C@H]1O[C@@H]1C(=O)O)C(=O)NCCCCN=C(N)N [Compound E64, reference compound]	inhibited significantly	–	–
denosumab: subcutaneous denosumab (60 mg) in the FREEDOM osteoporosis trial	–	decreased to levels below the premenopausal reference interval	up to 81%
